Measured values from patent US20230339900A1, “CASEIN KINASE 1 DELTA MODULATORS” (Janssen Pharmaceutica NV, priority 2020, published 2023).

Key:
[1] = biological target: human recombinant GST cleaved CSNK1D (Homo sapiens (Human), UniProt P48730); assay: Purified enzyme assay (ADP-Glo Kinase Assay); format: biochemical; settings: 2 nM CSNK1D, peptide substrate 150 μM, ATP 20 μM, 45 minutes room temperature
Experimental: In this assay, CSNK1D phosphorylates a substrate peptide PLSRTL-pS-VASLPGL in the presence of ATP. […] This assay monitors CSNK1D kinase activity by measuring the amount of ADP produced in the assay. A substrate mix is prepared by diluting peptide substrate (final concentration 150 μM) with ATP (final concentration 20 μM) in assay buffer (50 mM Tris/HCl pH 7.4+10 mM MgCl2+1 mM DTT+0.1% BSA). The substrate mix is added to each well of a low volume, 384-well, white opaque plate. Test compounds were diluted in HBSS and added in a dose-response to the plate. To start the reaction, 2 nM of constitutively active human recombinant GST cleaved CSNK1D (University of Dundee, clone DU 19064, stored at 0.28 mg/mL in 50 mM Tris/HCl pH 7.5, 150 mM NaCl, 270 mM Sucrose, 0.1 mM EGTA, 0.1% 2-mercaptoethanol, 0.02% Brij-35.1 mM benzamidine, 0.2 mM PMSF) was added to each well and the plate centrifuged for 5 minutes at 1500 rpm. The total volume of each reaction is 5 ul (2 μL of substrate mix, 1 μL of diluted compounds, and 2 μL of human recombinant CSNK1D). The plates are incubated for 45 minutes at room temperature.
ADP was quantified using the ADP-Glo™ Kinase Assay. ADP-Glo Reagent (5 μL) was added to each well. After a 1 hour incubation at room temperature, Kinase Detection Reagent (10 μL) was added to each well and incubated for 30 minutes. Luminescence was measured on the Perkin Elmer Wallac EnVision 2104 Multi-label Reader. The raw data from the Envision is used to calculate percent activity.

[2] = biological target: human CSNK1D tagged with nanoluciferase (Homo sapiens (Human), UniProt P48730); assay: Whole Cell nBRET CSNK1D Binding Assay; settings: living CHO cells stably expressing human CSNK1D-nanoluciferase; NanoBret tracer 130 nM; 2 hours 37° C.; read-out: CSNK1D BRET IC50
human CSNK1D tagged with nanoluciferase, sequence (P48730 whole entry): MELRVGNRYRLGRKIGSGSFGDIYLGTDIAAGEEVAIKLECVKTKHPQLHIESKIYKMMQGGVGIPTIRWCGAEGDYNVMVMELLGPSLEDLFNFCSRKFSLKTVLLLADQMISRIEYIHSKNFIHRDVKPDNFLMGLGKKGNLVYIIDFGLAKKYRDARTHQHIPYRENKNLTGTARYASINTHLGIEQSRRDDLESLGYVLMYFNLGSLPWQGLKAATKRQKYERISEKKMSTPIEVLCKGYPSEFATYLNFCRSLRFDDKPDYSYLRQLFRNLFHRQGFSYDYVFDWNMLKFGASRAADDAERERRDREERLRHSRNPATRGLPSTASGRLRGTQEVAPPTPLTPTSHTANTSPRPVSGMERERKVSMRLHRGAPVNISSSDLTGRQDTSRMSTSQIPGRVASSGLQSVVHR
Experimental: This cellular binding assay uses a bioluminescence resonance energy transfer to measure human CSNK1D binding activity in living Chinese Hamster Ovary (CHO) cells that are stably expressing human CSNK1D tagged with nanoluciferase. The cells were grown to confluency in growth media (DMEM:F12, 50 u/mLPen/Strep, […] glutamine, and 0.6 mg/mL G418) in 10 cm^2 dishes. Cells were seeded onto white, opaque 384-well plates (Corning, cat #3704) at a density of 8,000 cells/well in serum-free OptiMEM and left to incubated overnight at 37° C., […]. The next day, test compounds were added in a dose response to the plate followed by a NanoBret tracer (130 nM). The plate is mixed on an orbital shaker for 30 seconds, then placed in a 37° C. incubator for 2 hours. NanoBret Nano-Glo Substrate solution (20 μL) is added to all wells and incubated for 3 minutes at room temperature. Donor (450 nm) and acceptor (630 nm) emissions are then measured within 10 minutes using a ClarioStar plate reader. The data is used to calculate millibret units, defined as (E630/E450)*1000. Bret emissions are then graphed against the log of compound concentrations and these graphs are used to determine the IC50 of each compound.

human recombinant GST cleaved CSNK1D, sequence (P48730 whole entry): as above

SMILES | AC50 [1] | IC50 [2]
CC(C)Cn1cc(-c2ccnc3[nH]ncc23)c(-c2ccc(F)cn2)n1 [Example 62, 4-(3-(5-Fluoropyridin-2-yl)-1-isobutyl-1H-pyrazol-4-yl)-1H-pyrazolo[3,4-b]pyridine] | 8 nM | 477 nM
Cn1cc(-c2ccnc3[nH]ncc23)c(-c2ncc(F)cc2F)n1 [Example 38, 4-(3-(3,5-Difluoropyridin-2-yl)-1-methyl-1H-pyrazol-4-yl)-1H-pyrazolo[3,4-b]pyridine] | 46 nM | 390 nM
Cc1cc(-c2cn(C)nc2-c2ccc(F)c(C)n2)c2cn[nH]c2n1 [Example 40, 4-(3-(5-Fluoro-6-methylpyridin-2-yl)-1-methyl-1H-pyrazol-4-yl)-6-methyl-1H-pyrazolo[3,4-b]pyridine] | 19 nM | 288 nM
Cn1cc(-c2ccnc3[nH]ccc23)c(-c2ncc(F)cn2)n1 [Example 43, 4-[3-(5-Fluoropyrimidin-2-yl)-1-methyl-pyrazol-4-yl]-1H-pyrrolo[2,3-b]pyridine] | 31 nM | 268 nM
COc1ncc(-c2nn(C)cc2-c2cc(C)nc3[nH]ncc23)cc1C [Example 141, 4-[3-(6-Methoxy-5-methyl-3-pyridyl)-1-methyl-pyrazol-4-yl]-6-methyl-1H-pyrazolo[3,4-b]pyridine] | 44 nM | 2020 nM
Cn1cc(-c2c(CC3COC3)cnc3[nH]ccc23)c(-c2ccc(F)cn2)n1 [Example 95, 4-(3-(5-Fluoropyridin-2-yl)-1-methyl-1H-pyrazol-4-yl)-5-(oxetan-3-ylmethyl)-1H-pyrrolo[2,3-b]pyridine] | 2 nM | 376 nM
Cn1cnc(-c2nn(C)cc2-c2ccnc3[nH]ccc23)c1 [Example 9, 4-(1-Methyl-3-(1-methyl-1H-imidazol-4-yl)-1H-pyrazol-4-yl)-1H-pyrrolo[2,3-b]pyridine] | 16 nM | 568 nM
Cn1cc(-c2ccnc3[nH]cc(C#N)c23)c(-c2ccc(F)cn2)n1 [Example 88, 4-[3-(5-Fluoro-2-pyridyl)-1-methyl-pyrazol-4-yl]-1H-pyrrolo[2,3-b]pyridine-3-carbonitrile] | 16 nM | 144 nM
COc1ccc2ncc(F)c(-c3cn(C)nc3-c3ccc(F)cn3)c2n1 [Example 156, 7-Fluoro-8-[3-(5-fluoro-2-pyridyl)-1-methyl-pyrazol-4-yl]-2-methoxy-1,5-naphthyridine] | 52 nM | 803 nM
Cn1cc(-c2ccnc3[nH]c(C(F)F)cc23)c(-c2ccc(F)cn2)n1 [Example 84, 2-(Difluoromethyl)-4-(3-(5-fluoropyridin-2-yl)-1-methyl-1H-pyrazol-4-yl)-1H-pyrrolo[2,3-b]pyridine] | 23 nM | 224 nM
Cn1cc(-c2ncnc3[nH]ccc23)c(-c2ccc(F)cn2)n1 [Example 102, 4-(3-(5-Fluoropyridin-2-yl)-1-methyl-1H-pyrazol-4-yl)-7H-pyrrolo[2,3-d]pyrimidine] | 48 nM | 1280 nM
Cn1cc(-c2cc(C3CC3)nc3[nH]ncc23)c(-c2ccc(F)cn2)n1 [Example 101, 6-Cyclopropyl-4-(3-(5-fluoropyridin-2-yl)-1-methyl-1H-pyrazol-4-yl)-1H-pyrazolo[3,4-b]pyridine] | 34 nM | 829 nM
Cn1cc(-c2ccnc3[nH]ccc23)c(-c2ccncc2)n1 [Example 17, 4-[1-Methyl-3-(4-pyridyl)pyrazol-4-yl]-1H-pyrrolo[2,3-b]pyridine] | 101 nM | 1640 nM
Cn1cc(-c2ccnc3[nH]ccc23)c(-c2ccc(F)nc2)n1 [Example 28, 4-[3-(6-Fluoro-3-pyridyl)-1-methyl-pyrazol-4-yl]-1H-pyrrolo[2,3-b]pyridine] | 8 nM | 165 nM
Cc1cc(-c2cn(C(C)C)nc2-c2ccc(F)cn2)c2cn[nH]c2n1 [Example 60, 4-(3-(5-Fluoropyridin-2-yl)-1-isopropyl-1H-pyrazol-4-yl)-6-methyl-1H-pyrazolo[3,4-b]pyridine] | 11 nM | 372 nM
